Experimental data published in PubChem BioAssay (NCI).
“And” between values parts separate entries of the source, which are not always exact repeats. Equal values may be shown once.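 Growth conditions: 96-well plates. Treatment: test compound, 48 hours, 5 concentrations. Analysis: linear interpolation between bracketing concentrations; unreached endpoints set to highest concentration. GI50 marks 50% less growth. TGI marks complete inhibition of growth.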

Key:
Test in all cases: NCI tumour cell line growth inhibition, 48 h
[1] = tested on: MDA-N
[2] = tested on: SR leukemia
[3] = tested on: TK-10 renal
[4] = tested on: M14 melanoma
[5] = tested on: T-47D breast
[6] = tested on: MDA-MB-231 breast
[7] = tested on: BT-549 breast
[8] = tested on: 786-0 renal
[9] = tested on: MDA-MB-435
[10] = tested on: DMS 114 small cell lung
[11] = tested on: HOP-18 NSCLC
[12] = tested on: P388/ADR leukemia
[13] = tested on: OVCAR-5 ovarian
[14] = tested on: SNB-19 CNS
[15] = tested on: EKVX NSCLC
[16] = tested on: SNB-78 CNS
[17] = tested on: M19-MEL melanoma
[18] = tested on: DLD-1 colon
[19] = tested on: HCT-116 colon
[20] = tested on: SF-539 CNS
[21] = tested on: KM20L2 colon
[22] = tested on: CAKI-1 renal
[23] = tested on: K-562 leukemia
[24] = tested on: RXF 393 renal
[25] = tested on: HOP-92 NSCLC
[26] = tested on: SNB-75 CNS
[27] = tested on: A549 NSCLC
[28] = tested on: SK-OV-3 ovarian
[29] = tested on: DMS 273 small cell lung
[30] = tested on: HT29 colon
[31] = tested on: MALME-3M melanoma
[32] = tested on: SK-MEL-2 melanoma
[33] = tested on: DU-145 prostate
[34] = tested on: OVCAR-8 ovarian
[35] = tested on: HOP-62 NSCLC
[36] = tested on: LOX IMVI melanoma
[37] = tested on: COLO 205 colon
[38] = tested on: SW-620 colon
[39] = tested on: XF 498 CNS
[40] = tested on: SK-MEL-5 melanoma
[41] = tested on: HCC-2998 colon
[42] = tested on: OVCAR-4 ovarian
[43] = tested on: LXFL 529 NSCLC
[44] = tested on: RXF-631 renal
[45] = tested on: PC-3 prostate
[46] = tested on: RPMI-8226 leukemia
[47] = tested on: ACHN renal
[48] = tested on: NCI-H226 lung
[49] = tested on: SK-MEL-28 melanoma
[50] = tested on: UO-31 renal
[51] = tested on: SF-295 CNS
[52] = tested on: SN12C renal
[53] = tested on: A498 renal
[54] = tested on: UACC-257 melanoma
[55] = tested on: OVCAR-3 ovarian
[56] = tested on: UACC-62 melanoma
[57] = tested on: CCRF-CEM leukemia
[58] = tested on: NCI/ADR-RES ovarian
[59] = tested on: NCI-H23 lung
[60] = tested on: SF-268 CNS
[61] = tested on: U251 CNS
[62] = tested on: HL-60(TB) leukemia
[63] = tested on: HCT-15 colon
[64] = tested on: KM12 colon
[65] = tested on: HS 578T breast
[66] = tested on: MOLT-4 leukemia
[67] = tested on: NCI-H522 lung
[68] = tested on: IGROV1 ovarian
[69] = tested on: MCF7 breast
[70] = tested on: NCI-H460 lung

COC1C(O)CC(OC2CC(Oc3cc4cc5c(c(O)c4c(O)c3C)C(=O)[C@@H](OC3CC(OC4CC(OC6CC(C)(O)C(OC(C)=O)C(C)O6)C(O)C(C)O4)C(O)C(C)O3)[C@H]([C@H](OC)C(=O)[C@@H](O)[C@@H](C)O)C5)OC(C)C2OC(C)=O)OC1C (some centres not stated)
TGI [1]: 0.000192 µM and < 0.0107 µM
GI50 [2]: 0.0252 nM
TGI [2]: 0.000152 µM
GI50 [3]: < 0.0155 µM
TGI [3]: 0.0033 µM
GI50 [4]: 0.0189 nM
TGI [4]: 0.000105 µM
GI50 [5]: 0.0356 nM
TGI [5]: 0.00182 µM and < 0.215 µM
GI50 [6]: 0.0101 µM
TGI [6]: 0.000467 µM and < 0.0234 µM
TGI [7]: 5.97e-05 µM
GI50 [8]: 0.000213 µM
TGI [9]: 0.000167 µM
GI50 [10]: 0.00328 µM
GI50 [11]: 0.0164 nM
GI50 [12]: 0.106 µM
TGI [12]: 9.49 µM and 8.82 µM

COC1/C=C/OC2(C)Oc3c(C)c(O)c4c(c3C2=O)C(=O)C=C(NC(=O)/C(C)=C\C=C\C(C)C(OC=O)C(C)C(O)C(C)C(OC(C)=O)C1C)C4=O (configuration not stated)
TGI [13]: 36.4 µM
TGI [14]: 27.4 µM
TGI [15]: 25.8 µM
TGI [16]: 44.2 µM
TGI [17]: 27.6 µM
TGI [18]: 23.3 µM
TGI [19]: 14.1 µM
TGI [20]: 32.9 µM
TGI [21]: 35.2 µM
TGI [1]: > 50.7 µM
TGI [2]: 8.08 µM
TGI [3]: 30.4 µM
TGI [22]: 28.3 µM
TGI [23]: 20.7 µM
TGI [24]: 19 µM
TGI [25]: 28.8 µM
TGI [26]: 41.1 µM
TGI [27]: 39.7 µM
TGI [28]: 56.7 µM
TGI [29]: 30.9 µM
TGI [4]: 19.5 µM
TGI [30]: 23.4 µM
TGI [31]: 28.7 µM
TGI [32]: 36.6 µM
TGI [33]: 33 µM
TGI [34]: 33.5 µM
TGI [35]: 34.8 µM
TGI [36]: 14.1 µM
TGI [37]: 18 µM
TGI [38]: 14 µM
TGI [39]: 12.8 µM
TGI [40]: 31.6 µM
TGI [41]: 35.4 µM
TGI [42]: 19.1 µM
TGI [43]: 19 µM
TGI [44]: 35.7 µM
TGI [5]: 11.6 µM
TGI [6]: > 48.5 µM
TGI [45]: 25.1 µM
TGI [46]: 24.2 µM
TGI [7]: 24 µM
TGI [47]: 21.5 µM
TGI [48]: 21.5 µM
TGI [49]: 15 µM
TGI [50]: 29.6 µM
TGI [51]: 51 µM
TGI [52]: 29.5 µM
TGI [53]: 41.3 µM
TGI [54]: 26.5 µM
TGI [55]: 11.9 µM
TGI [56]: 27.9 µM
TGI [57]: 6.4 µM
TGI [58]: 49.2 µM
TGI [59]: 30.6 µM
TGI [60]: 37.1 µM
TGI [8]: 20.8 µM
TGI [61]: 38.2 µM
TGI [62]: 5.88 µM
TGI [63]: 22.7 µM
TGI [64]: 45.9 µM
TGI [65]: 44.9 µM
TGI [66]: 10.8 µM
TGI [9]: 33.3 µM
TGI [67]: 6.33 µM
TGI [10]: 34.6 µM
TGI [11]: 15.8 µM
TGI [68]: 34.7 µM
TGI [69]: 7.29 µM
TGI [70]: 42 µM
